What all share (assay type): cell-based
Assay [1] concerns VSVΔG-G (vesicular stomatitis virus glycoprotein). The assay is described as follows: microbe, parasite or virus in culture. The note with it: for pIC50: Vesicular stomatitis virus, read-out: IC50, VSVΔG pseudotypes: G; for IC50 against VSVΔG-G: 0.3125–40 μM.
The test system of assay [2] is VSVΔG-Sδ (SARS-CoV-2 Delta S glycoprotein). The assay is described as follows: microbe, parasite or virus in culture. The note with it: for pIC50: Severe acute respiratory syndrome coronavirus 2, read-out: IC50 against VSVΔG-Sδ.
The test system of a further assay is SARS-CoV-2 XBB.1.5.
Another assay has as its system SARS-CoV-2 CH.1.1.
Assay [3] concerns VSVΔG-SM (MERS-CoV S glycoprotein). The following applies: 0.3125–40 μM.
Assay [4] concerns VSVΔG-Sα (SARS-CoV-2 Alpha S glycoprotein). The assay is described as follows: microbe, parasite or virus in culture. The following applies: Severe acute respiratory syndrome coronavirus 2, read-out: IC50 against VSVΔG-Sα.
Assay [5] has as its system SARS-CoV-2 Delta (B.1.617.2).
The test system of assay [6] is VSVΔG-Sο (SARS-CoV-2 Omicron S glycoprotein). The assay is described as follows: microbe, parasite or virus in culture. The following applies: Severe acute respiratory syndrome coronavirus 2, read-out: IC50 against VSVΔG-Sο.

We go through six compounds from paper PMC11176637 (iScience, 2024).

pIC50: −log10 of the molar value. A value given as a limit tells only on which side of the number the result lay.

The pIC50 is the IC50 on a negative log10 scale, so that one unit is a factor of ten. As to `Cc1cccc(NC(=O)C[S+]([O-])c2nc(-c3ccccc3)cn2-c2ccc(Cl)cc2)c1C` (racemic) [PCM-0282478, 2-((1-(4-chlorophenyl)-4-phenyl-1H-imidazol-2-yl)sulfinyl)-N-(2,3-dimethylphenyl)acetamide], the pIC50 in assay [1] was less than 5.00. In addition, in assay [2], the “times more potent than synthesized PCM-0163855 against VSVΔG-Sδ” value is recorded as “approximately 10 times”. In addition, the “IC50, SARS-CoV-2: XBB.1.5 viral replication” value in the assay on SARS-CoV-2 XBB.1.5 is given as “neither inhibited”. The “IC50, SARS-CoV-2: CH.1.1 viral replication” value with SARS-CoV-2 CH.1.1 is given as “neither inhibited”.

For `CNC(=O)C(C#N)(Cc1cc(Cl)cc2c1OCOC2)Cc1cc(Cl)cc2c1OCOC2` [PCM-0068389, N-methyl3-(6-chloro-2,4-dihydro-1,3-benzodioxin-8-yl)-2-[(6-chloro-2,4-dihydro-1,3-benzodioxin-8-yl)methyl]-2-cyanopropionamide], in assay [1], the “IC50 against VSVΔG-G” value was “some activity”. Moreover, the “IC50 against VSVΔG-SM” value in assay [3] was “lost all activity”.

Take `N=C(N)Nc1ccc(C(=O)Oc2ccc3cc(C(=N)N)ccc3c2)cc1` [PCM-0095060, 6-amidino-2-naphthyl p-guanidinobenzoate, reference compound]: the “IC50 against VSVΔG-G” value in assay [1] is reported as “no significant activity”. Also, the pIC50 in assay [4] was 6.04; in assay [2] it was 6.51. Besides, the “inhibition of bona fide SARS-CoV-2 Delta virus replication” value in assay [5] is given as “failed to inhibit”.

For the compound `Cc1cccc(NC(=O)CS(=O)(=O)c2nc(-c3ccccc3)cn2-c2ccc(Cl)cc2)c1C` [PCM-0163855, 2-((1-(4-chlorophenyl)-4-phenyl-1H-imidazol-2-yl)sulfonyl)-N-(2,3-dimethylphenyl)acetamide], the pIC50 in assay [1] is less than 5.00; in assay [4], 6.43; in assay [2], 6.35; in assay [6], 4.39. Besides, in assay [3], the “IC50 against VSVΔG-SM” value was “inactive”. Also, the “IC50, SARS-CoV-2: XBB.1.5 viral replication” value with SARS-CoV-2 XBB.1.5 was “neither inhibited”. Moreover, the “IC50, SARS-CoV-2: CH.1.1 viral replication” value in the assay with SARS-CoV-2 CH.1.1 is “neither inhibited”.

As to `COc1ccc2cc3c(N)nn(C(=O)Cc4c[nH]c5ccccc45)c3nc2c1` [PCM-0166392, 1-{6-amino-12-methoxy-2,4,5-triazatricyclo[7.4.0.0³,⁷]trideca-1,3(7),5,8,10,12-hexaen-4-yl}-2-(3-indolyl)-1-ethanone], the “IC50 against VSVΔG-SM” value in assay [3] is recorded as “not selective”.

`Nc1nc(Nc2ccccc2)sc1C(=O)c1ccccc1Cl` [PCM-0179622, (4-amino-2-anilino-1,3-thiazol-5-yl)(o-chlorophenyl)methanone]: the “IC50 against VSVΔG-SM” value in assay [3] was “not selective”.
